Laboratory results as given in patent US11096924B2, “Combination therapies using immuno-dash inhibitors and PGE2 antagonists” (Trustees of Tufts College, priority 2016, dated 2021).
pIC50: −log10 of the molar value. Where “and” joins values, the source holds several entries; their conditions need not be identical. Equal entries are not always repeated. Where two headings read alike, the source gives them in different places.

Assays:
[1] = biological target: recombinant human dipeptidyl peptidase IV (DPPIV) (Homo sapiens (Human), UniProt P27487); experiment: In vitro inhibition assay, dipeptidyl peptidase IV; format: biochemical
[2] = biological target: recombinant human dipeptidyl peptidase II (DPPII) (Homo sapiens (Human), UniProt Q9UHL4); experiment: In vitro inhibition assay, dipeptidyl peptidase II; format: biochemical
[3] = Oral PK profile in mice, plasma drug concentrations; format: in vivo, BALB/c mice; conditions: 3 mg/kg oral gavage, individual mice #1-#3
Protocol: Example 8. […] Drugs dissolved in pH 2 water at 0.3 mg/mL. […] 2. Plasma prepared by centrifugation. 3. Drug concentrations measured by LCMS.

DPP7 = DPP7 (Homo sapiens (Human), UniProt Q9UHL4); experiment: EnPlex assay DPP7; format: biochemical
[4] = biological target: recombinant human fibroblast activation protein (FAP) (Homo sapiens (Human), UniProt Q12884); experiment: In vitro inhibition assay, fibroblast activation protein; format: biochemical
[5] = biological target: recombinant human dipeptidyl peptidase 8 (DPP8) (Homo sapiens (Human), UniProt Q6V1X1); experiment: In vitro inhibition assay, dipeptidyl peptidase 8; format: biochemical
macrophages = experiment: Pyroptosis of macrophages in cell culture; format: cell-based; conditions: Macrophage; Example 2 table; unit inferred
[6] = system: MB49 murine urothelial carcinoma cell line; experiment: MB49 efficacy studies in tumor bearing mice; format: in vivo; conditions: celecoxib alone, various concentrations, versus vehicle

Sequence of recombinant human dipeptidyl peptidase IV (DPPIV) (P27487 whole entry): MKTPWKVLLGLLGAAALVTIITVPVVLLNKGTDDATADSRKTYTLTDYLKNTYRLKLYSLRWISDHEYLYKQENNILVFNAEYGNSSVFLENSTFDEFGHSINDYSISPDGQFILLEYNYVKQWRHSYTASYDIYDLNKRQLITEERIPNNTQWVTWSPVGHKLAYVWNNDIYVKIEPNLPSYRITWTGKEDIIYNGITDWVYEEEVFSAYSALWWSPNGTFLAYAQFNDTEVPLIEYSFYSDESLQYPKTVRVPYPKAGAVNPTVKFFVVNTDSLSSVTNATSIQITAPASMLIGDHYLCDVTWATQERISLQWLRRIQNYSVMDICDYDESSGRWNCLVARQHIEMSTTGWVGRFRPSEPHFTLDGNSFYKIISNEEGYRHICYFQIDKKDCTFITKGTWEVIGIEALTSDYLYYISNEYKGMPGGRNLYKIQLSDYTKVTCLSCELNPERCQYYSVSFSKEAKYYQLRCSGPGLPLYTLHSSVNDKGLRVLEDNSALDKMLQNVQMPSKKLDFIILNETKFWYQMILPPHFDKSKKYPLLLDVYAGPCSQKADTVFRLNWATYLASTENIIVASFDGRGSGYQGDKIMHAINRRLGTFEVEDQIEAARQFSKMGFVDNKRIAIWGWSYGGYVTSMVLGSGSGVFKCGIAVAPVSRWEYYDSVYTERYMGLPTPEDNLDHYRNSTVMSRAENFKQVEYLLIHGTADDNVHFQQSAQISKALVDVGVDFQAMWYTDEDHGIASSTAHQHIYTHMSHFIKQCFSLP
Sequence of recombinant human fibroblast activation protein (FAP) (Q12884 whole entry): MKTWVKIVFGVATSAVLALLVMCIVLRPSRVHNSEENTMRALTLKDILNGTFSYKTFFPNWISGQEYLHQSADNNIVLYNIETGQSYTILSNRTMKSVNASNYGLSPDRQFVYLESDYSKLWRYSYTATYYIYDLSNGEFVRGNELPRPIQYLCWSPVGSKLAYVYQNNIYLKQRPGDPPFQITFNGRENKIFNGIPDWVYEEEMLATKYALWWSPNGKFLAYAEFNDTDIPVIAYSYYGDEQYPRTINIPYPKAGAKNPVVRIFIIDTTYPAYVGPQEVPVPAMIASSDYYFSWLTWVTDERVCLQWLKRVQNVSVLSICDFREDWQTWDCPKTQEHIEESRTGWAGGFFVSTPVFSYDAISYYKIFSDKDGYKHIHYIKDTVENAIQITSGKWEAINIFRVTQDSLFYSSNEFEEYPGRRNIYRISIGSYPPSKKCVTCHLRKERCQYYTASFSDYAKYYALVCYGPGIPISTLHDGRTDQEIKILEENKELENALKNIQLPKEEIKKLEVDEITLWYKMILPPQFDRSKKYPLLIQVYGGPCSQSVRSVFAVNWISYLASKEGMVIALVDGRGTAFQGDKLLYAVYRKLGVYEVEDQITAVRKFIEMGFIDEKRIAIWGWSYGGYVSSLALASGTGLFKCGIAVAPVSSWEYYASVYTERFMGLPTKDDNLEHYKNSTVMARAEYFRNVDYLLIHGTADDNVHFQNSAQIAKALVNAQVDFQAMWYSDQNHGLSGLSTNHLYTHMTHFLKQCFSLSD
Sequence of recombinant human dipeptidyl peptidase 8 (DPP8) (Q6V1X1 whole entry): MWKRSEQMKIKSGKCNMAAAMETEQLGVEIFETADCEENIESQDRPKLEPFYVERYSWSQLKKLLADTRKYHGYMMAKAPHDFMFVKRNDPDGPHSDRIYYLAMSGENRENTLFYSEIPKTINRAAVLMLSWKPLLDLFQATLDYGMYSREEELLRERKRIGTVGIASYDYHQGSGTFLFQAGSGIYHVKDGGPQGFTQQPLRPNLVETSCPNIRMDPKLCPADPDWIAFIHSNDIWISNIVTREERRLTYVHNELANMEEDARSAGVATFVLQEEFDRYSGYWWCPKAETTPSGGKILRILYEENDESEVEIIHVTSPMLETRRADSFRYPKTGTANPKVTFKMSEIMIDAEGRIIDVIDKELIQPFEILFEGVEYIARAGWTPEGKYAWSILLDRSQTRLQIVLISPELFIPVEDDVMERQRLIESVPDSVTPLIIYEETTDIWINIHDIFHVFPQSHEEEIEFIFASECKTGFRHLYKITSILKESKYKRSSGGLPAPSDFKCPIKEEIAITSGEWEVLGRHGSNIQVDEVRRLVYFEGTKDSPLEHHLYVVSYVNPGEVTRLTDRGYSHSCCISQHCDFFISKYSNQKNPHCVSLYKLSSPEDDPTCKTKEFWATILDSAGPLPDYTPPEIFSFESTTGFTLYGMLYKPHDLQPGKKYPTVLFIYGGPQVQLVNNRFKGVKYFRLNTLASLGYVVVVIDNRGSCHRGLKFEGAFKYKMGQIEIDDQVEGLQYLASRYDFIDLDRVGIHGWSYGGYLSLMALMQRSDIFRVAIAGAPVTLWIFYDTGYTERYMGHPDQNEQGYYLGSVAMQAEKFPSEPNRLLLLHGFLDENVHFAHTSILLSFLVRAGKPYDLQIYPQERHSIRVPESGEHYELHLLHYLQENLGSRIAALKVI

CC1([C@H](N)C(=O)N2CCC[C@H]2B(O)O)CCCC1 (relative stereo) [4175CP]
pIC50 [1]: 8.54
pIC50 ([2]; DPP2): 8.04

N[C@H](C(=O)N1CCC[C@H]1B(O)O)C12CC3CC(CC(C3)C1)C2 (relative stereo) [ARI-5544, Gly(1-adamantyl)-boroPro]
pIC50 ([2]; DPP2): 7.57
pIC50 ([2]; compound incubated at room temperature overnight at pH 2.0 or pH 7.4 prior to the assays, read-out: DPPII IC50): 7.68
concentration in Plasma ([3]; 5 min post-dose): 110 nM and 220 nM
concentration in Plasma ([3]; 20 min post-dose): 170 nM and 180 nM
concentration in Plasma ([3]; 30 min post-dose): 220 nM and 170 nM
concentration in Plasma ([3]; 40 min post-dose): 130 nM and 140 nM
concentration in Plasma ([3]; 60 min post-dose): 110 nM and 90 nM
concentration in Plasma ([3]; 120 min post-dose): 30 nM and 50 nM
concentration in Plasma ([3]; 240 min post-dose): 10 nM and 20 nM
concentration at 5 min ([3]; male, BALB/c, mouse, plasma, oral, 3 mg/kg, 5 min post-dose): 160 nM
concentration at 10 min ([3]; male, BALB/c, mouse, plasma, oral, 3 mg/kg, 10 min post-dose): 270 nM
concentration at 20 min ([3]; male, BALB/c, mouse, plasma, oral, 3 mg/kg, 20 min post-dose): 140 nM
concentration at 30 min ([3]; male, BALB/c, mouse, plasma, oral, 3 mg/kg, 30 min post-dose): 110 nM
concentration at 40 min ([3]; male, BALB/c, mouse, plasma, oral, 3 mg/kg, 40 min post-dose): 120 nM
concentration at 60 min ([3]; male, BALB/c, mouse, plasma, oral, 3 mg/kg, 60 min post-dose): 80 nM
concentration at 120 min ([3]; male, BALB/c, mouse, plasma, oral, 3 mg/kg, 120 min post-dose): 30 nM
concentration at 240 min ([3]; male, BALB/c, mouse, plasma, oral, 3 mg/kg, 240 min post-dose): 20 nM
Average [G-CSF] at 6 hrs (G-CSF; 5 μg/animal PO): 650 pg/mL
Average [G-CSF] at 6 hrs (G-CSF; 20 μg/animal PO): 30000 pg/mL
Average [G-CSF] at 6 hrs (G-CSF; 20 μg/animal SC): 73000 pg/mL

N[C@@H](CCC(=O)O)C(=O)N1CCC[C@H]1B(O)O [compound 8120, Glu-boroPro]
Average [G-CSF] at 6 hrs (G-CSF; 20 μg/animal PO): 340 pg/mL
Average [G-CSF] at 6 hrs (G-CSF; 200 μg/animal PO): 160 pg/mL
Average [G-CSF] at 6 hrs (G-CSF; 200 μg/animal SC): 210 pg/mL
Average [G-CSF] at 6 hrs (G-CSF; 2000 μg/animal PO): 2300 pg/mL
Average [G-CSF] at 6 hrs (G-CSF; 2000 μg/animal SC): 16000 pg/mL

CC(C)(C)[C@H](N)C(=O)N1CCC[C@H]1B(O)O [ARI-4175]
Average [G-CSF] at 6 hrs (G-CSF; 20 μg/animal PO): 19000 pg/mL
Average [G-CSF] at 6 hrs (G-CSF; 20 μg/animal SC): 65000 pg/mL

N[C@H](C(=O)N1CCC[C@H]1B(O)O)C12CC3CC(CC(O)(C3)C1)C2 (relative stereo) [ARI-3102A]
pIC50 ([2]; DPP2): 7.09
pIC50 (DPP7): < 7.00

CC1(C)CCCN[C@@H]1C(=O)N1CCC[C@H]1B(O)O (relative stereo) [compound 5349]
pIC50 [1]: 7.04
pIC50 [4]: 4.85
pIC50 ([2]; DPP2): 6.21
pIC50 [5]: 6.60

CC1(C)CN[C@@H]1C(=O)N1CCC[C@H]1B(O)O (relative stereo) [compound 5362]
pIC50 [1]: 9.30
pIC50 ([2]; DPP2): 7.17

C[C@H](N)C(=S)N1CCC[C@H]1B(O)O [ARI-2243]
pIC50 (macrophages): 4.96
Average [G-CSF] at 6 hrs (G-CSF; 20 μg/animal PO): 330 pg/mL
Average [G-CSF] at 6 hrs (G-CSF; 50 μg/animal IP): 2100 pg/mL
Average [G-CSF] at 6 hrs (G-CSF; 100 μg/animal IP): 2400 pg/mL
Average [G-CSF] at 6 hrs (G-CSF; 300 μg/animal IP): 4400 pg/mL

N[C@H](C(=O)N1CCC[C@H]1B(O)O)C1CCCCC1 [compound 1797, Crg-boroPro]
pIC50 (macrophages): 7.64
Average [G-CSF] at 6 hrs (G-CSF; 20 μg/animal PO): 20000 pg/mL

Cc1ccc(-c2cc(C(F)(F)F)nn2-c2ccc(S(N)(=O)=O)cc2)cc1 [celecoxib]
tumor growth rates [6]: no observed differences in tumor growth rates compared to control

CC1([C@H](N)C(=O)N2CCC[C@H]2B(O)O)CC1 (relative stereo) [compound 4367]
pIC50 [1]: 8.85
pIC50 [4]: 6.46
pIC50 ([2]; DPP2): 7.47

CN(CB(O)O)C(=O)[C@@H](N)CCC(=O)O [compound 2408]
pIC50 (macrophages): < 5.00

NC(N)=NCCC[C@H](N)C(=O)N1CCC[C@H]1B(O)O [Arg-boroPro]
Average [G-CSF] at 6 hrs (G-CSF; 20 μg/animal PO): 320 pg/mL
Average [G-CSF] at 6 hrs (G-CSF; 20 μg/animal SC): 160 pg/mL
Average [G-CSF] at 6 hrs (G-CSF; 200 μg/animal PO): 930 pg/mL
Average [G-CSF] at 6 hrs (G-CSF; 200 μg/animal SC): 670 pg/mL
Average [G-CSF] at 6 hrs (G-CSF; 2000 μg/animal PO): 3500 pg/mL
Average [G-CSF] at 6 hrs (G-CSF; 2000 μg/animal SC): 31000 pg/mL
